# Laboratory results reported in ChEMBL document CHEMBL5331057, “A decade of approved first-in-class small molecule orphan drugs: Achievements, challenges and perspectives” (Eur J Med Chem, 2022).
# Assays:
# Type in all cases: functional
# [1] = tested on: Mycobacterium tuberculosis
# [2] = tested on: Mycobacterium tuberculosis; remark: listed apart in the source
# [3] = tested on: Mycobacterium tuberculosis; remark: listed apart in the source
SMILES,MIC [1],MIC [2],MIC50 [3],MIC90 [3]
COc1nc2ccc(Br)cc2cc1[C@@H](c1ccccc1)[C@@](O)(CCN(C)C)c1cccc2ccccc12 [BEDAQUILINE],0.03 µg/mL,0.01 µg/mL,–,–
O=[N+]([O-])c1cn2c(n1)OC[C@@H](OCc1ccc(OC(F)(F)F)cc1)C2 [PRETOMANID],–,–,0.015 µg/mL,0.063 µg/mL
